Test results published in patent US9216163B2, “Method of inhibiting angiogenesis” (KYORIN PHARMACEUTICAL CO., LTD, priority 2013, dated 2015).

Tests used:
Erk1/2 = experiment: VEGF-induced phosphorylation of Erk1/2 in HUVEC (Western blot); type: cell-based, human; conditions: 100 μM pretreatment 15 minutes, VEGF 30 ng/mL for 5 or 15 minutes
Description: (§1) An effect of L-carbocisteine against phosphorylation of Akt, Erk1/2, c-Jun N-terminal kinase (JNK), and p38 MAP kinase accelerated by VEGF stimulation was evaluated using HUVEC. HUVEC were inoculated, and cultured in an EBM-2 medium containing 0.1% FBS overnight under starvation condition. The HUVEC were pretreated with L-carbocisteine (100 μM) for 15 minutes, and stimulated by VEGF (30 ng/mL) for 5 or 15 minutes. Phosphorylation accelerated by VEGF stimulation was evaluated using phosphor-specific antibodies against various kinases by a Western blot method. The level of kinase protein expression was investigated using each antibody after detection of phosphorylation.

HUVEC [1] = experiment: VEGF-induced cell growth of HUVEC (Cell Counting Kit-8); type: cell-based, human; conditions: VEGF 30 ng/mL
Description: An effect of L-carbocisteine against cell growth promotion by VEGF was evaluated in vitro using HUVEC. HUVEC were inoculated at 2,500 cells/well in a 96-well microplate, and cultured for 24 hours. Subsequently, the HUVEC were cultured in a medium without VEGF and bFGF overnight under a starvation condition. The HUVEC were pretreated with L-carbocisteine (10, 50, 100, and 200 μM) for 15 minutes, and then stimulated by VEGF (30 ng/mL). The number of living cells after 48 hours was determined by Cell Counting Kit-8 (manufactured by DOJINDO LABORATORIES) (n=6). 2) Results

[2] = system: c-Jun N-terminal kinase (JNK); experiment: VEGF-induced phosphorylation of JNK in HUVEC (Western blot); type: cell-based, human; conditions: 100 μM pretreatment 15 minutes, VEGF 30 ng/mL for 5 or 15 minutes
Description: as §1

HUVEC [3] = experiment: VEGF-induced tube formation of HUVEC in collagen; type: cell-based, human; conditions: 100 μM pretreatment 15 minutes, VEGF 30 ng/mL, after 24 hours
Description: An effect of L-carbocisteine against tube formation promoted by VEGF was evaluated in vitro using HUVEC. A collagen Type 1-C (available from Nitta Gelatin Inc.) lower layer was formed on a 12-well plate, HUVEC were inoculated on the lower layer, and a collagen upper layer was then formed. The HUVEC were pretreated with L-carbocisteine (100 μM) for 15 minutes, and stimulated by VEGF (30 ng/mL). The overall length of the lumen after 24 hours was measured (n=6).

p38 MAP kinase = experiment: VEGF-induced phosphorylation of p38 MAP kinase in HUVEC (Western blot); type: cell-based, human; conditions: 100 μM pretreatment 15 minutes, VEGF 30 ng/mL for 5 or 15 minutes
Description: as §1

HUVEC [4] = experiment: VEGF-induced cell migration of HUVEC; type: cell-based, human; conditions: 100 μM pretreatment 15 minutes, VEGF 30 ng/mL, after 12 hours
Description: An effect of L-carbocisteine against cell migration promoted by VEGF was evaluated in vitro using HUVEC. HUVEC were inoculated in a plate, and cultured until confluent. Subsequently, the HUVEC were cultured in a medium without VEGF and bFGF overnight under starvation condition. The HUVEC were pretreated with L-carbocisteine (100 μM) for 15 minutes. The cells (HUVEC) on the plate were peeled at certain intervals. The cells remaining on the plate were stimulated by VEGF (30 ng/mL). After 12 hours, the distance of cell migration was measured (n=4).

[5] = system: VEGF-induced angiogenesis formed in Matrigel; experiment: VEGF-induced angiogenesis in Matrigel, in vivo mouse model (Evans blue); conditions: male C57BL/6J mouse, 5 μg/g B.W. intraperitoneal twice daily for 14 days
Description: An effect of L-carbocisteine against angiogenesis promoted by VEGF was evaluated in an in vivo mouse model. A male C57BL/6J mouse (6 weeks) was anesthetized with pentobarbital. Subsequently, 500 μL of BD™ matrix containing 30 ng/mL VEGF was subcutaneously injected into the side of the mouse using a 27-G needle. L-carbocisteine (5 μg per g of body weight of the mouse) or physiologic saline (the same volume) was intraperitoneally administered twice a day, morning and evening, for 14 days. After completion of the administration for 14 days, Evans blue was administered to the mouse via the orbital vein plexus. The mouse was sufficiently perfused with EDTA, and anesthetized with pentobarbital. The matrigel was taken out from the body of the mouse. The weight of taken matrigel was measured, and the matrigel was immersed in a formamide solution and allowed to stand at 37° C. for 48 hours. Following elution of Evans blue in the formamide solution, the weight of eluted Evans blue per unit weight of the matrigel was measured using an absorbance of 620 nm (n=8).

Akt = experiment: VEGF-induced phosphorylation of Akt in HUVEC (Western blot); type: cell-based, human; conditions: 100 μM pretreatment 15 minutes, VEGF 30 ng/mL for 5 or 15 minutes
Description: as §1

N[C@@H](CSCC(=O)O)C(=O)O [L-carbocisteine, S-(carboxymethyl)-L-cysteine]
accelerated phosphorylation of Erk1/2 (Erk1/2): specifically suppressed | growth suppressive effect, concentration dependence (HUVEC [1]; 10, 50, 100 and 200 μM, 48 hours): concentration-dependent | endothelial cell growth promoted by VEGF (HUVEC [1]; pretreatment with 100 μM or more for 15 minutes, living cells after 48 hours): significantly suppressed | accelerated phosphorylation of JNK [2]: only accelerated phosphorylation of Erk1/2 was specifically suppressed | tube formation promoted by VEGF (overall length of the lumen) (HUVEC [3]): significantly suppressed | accelerated phosphorylation of p38 MAP kinase (p38 MAP kinase): only accelerated phosphorylation of Erk1/2 was specifically suppressed | migration promoted by VEGF (distance of cell migration) (HUVEC [4]): significantly suppressed | vascular density in the matrigel [5]: markedly decreased | accelerated phosphorylation of Akt (Akt): only accelerated phosphorylation of Erk1/2 was specifically suppressed
